# Measurements as given in patent publication US6423716B1, “Nitrogenous heterocyclic compounds” (Kyowa Hakko Kogyo Co., Ltd., priority 1998, dated 2002).
# pIC50: −log10 of the molar value.
# Target: T1, human β-PDGF receptor (Homo sapiens, UniProt P09619)
# T1 construct: expressed in transfected cells; host or cells: Chinese hamster ovary (CHO) cells
# Test: PDGF receptor phosphorylation inhibition test
# Assay type: cell-based
# Settings: CHO cells expressing human β-PDGF receptor cDNA; concentration inhibiting 50% of PDGF receptor phosphorylation
# Description: PDGF Receptor Phosphorylation Inhibition Test
# This test was carried out according to the process disclosed in a literature [J. Biol. Chem., 266: 413-418 (1991)]. In this case, Chinese hamster ovary (CHO) cells to which human β-PDGF receptor cDNA had been inserted and in which it had been expressed were used in the test.
# T1 sequence (P09619 33-1106): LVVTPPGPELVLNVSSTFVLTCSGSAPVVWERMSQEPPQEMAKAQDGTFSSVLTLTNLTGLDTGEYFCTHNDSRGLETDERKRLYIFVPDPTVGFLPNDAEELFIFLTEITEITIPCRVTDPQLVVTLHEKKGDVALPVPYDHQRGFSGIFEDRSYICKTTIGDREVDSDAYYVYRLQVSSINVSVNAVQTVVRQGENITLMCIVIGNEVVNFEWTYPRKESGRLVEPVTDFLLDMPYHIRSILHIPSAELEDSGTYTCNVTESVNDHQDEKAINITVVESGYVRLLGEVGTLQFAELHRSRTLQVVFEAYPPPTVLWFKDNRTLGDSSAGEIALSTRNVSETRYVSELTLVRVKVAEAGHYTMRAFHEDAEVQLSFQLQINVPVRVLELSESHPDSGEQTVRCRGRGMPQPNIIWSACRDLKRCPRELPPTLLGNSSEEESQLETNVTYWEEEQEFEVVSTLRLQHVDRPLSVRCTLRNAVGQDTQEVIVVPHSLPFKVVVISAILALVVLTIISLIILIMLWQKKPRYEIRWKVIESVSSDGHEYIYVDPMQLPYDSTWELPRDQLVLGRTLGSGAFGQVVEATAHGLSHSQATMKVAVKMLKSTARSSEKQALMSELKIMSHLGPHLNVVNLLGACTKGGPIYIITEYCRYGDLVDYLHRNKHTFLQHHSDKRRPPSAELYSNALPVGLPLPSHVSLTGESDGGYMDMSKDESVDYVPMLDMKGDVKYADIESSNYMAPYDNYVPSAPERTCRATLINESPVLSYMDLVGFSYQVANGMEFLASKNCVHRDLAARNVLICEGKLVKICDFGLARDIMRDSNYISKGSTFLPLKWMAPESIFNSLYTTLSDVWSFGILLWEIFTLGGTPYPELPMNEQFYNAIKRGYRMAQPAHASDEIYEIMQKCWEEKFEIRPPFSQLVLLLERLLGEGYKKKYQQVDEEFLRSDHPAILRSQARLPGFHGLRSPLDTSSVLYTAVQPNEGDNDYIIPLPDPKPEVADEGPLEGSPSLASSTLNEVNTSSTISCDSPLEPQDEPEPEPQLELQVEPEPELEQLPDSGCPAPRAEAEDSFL
row,SMILES,pIC50
1,"COc1cc2ncnc(N3CCN(C(=NC#N)NCc4ccc(Cl)cc4)CC3)c2cc1OC [Compound 31, N-(4-Chlorobenzyl)-N′-cyano-4-(6,7-dimethoxy-4-quinazolinyl)-1-piperazinecarboxamidine]",6.42
2,"COc1cc2ncnc(N3CCN(C(=NC#N)NCc4ccc5c(c4)OCO5)CC3)c2cc1OC [Compound 41, N′-Cyano-4-(6,7-dimethoxy-4-quinazolinyl)-N-(3,4-methylenedioxybenzyl)-1-piperazinecarboxamidine]",6.72

# Same assay, conditions: CHO cells expressing human β-PDGF receptor; test compound at 10 μM
row,SMILES,inhibition at 10 µM [%]
1,"O=C(Nc1ccc(Oc2ccccc2)cc1)N1CCN(c2ncnc3cnc(F)cc23)CC1 [Compound 22, N-(4-Phenoxyphenyl)-4-(6-fluoro-4-pyrido[3,4-d]pyrimidinyl)-1-piperazinecarboxamide]",66
2,"COc1cc2ncnc(N3CCN(C(NCc4cccc(Cl)c4)=C(C#N)C#N)CC3)c2cc1OC [Compound 51, 4-{4-[1-(3-Chlorobenzylamino)-2,2-dicyanovinyl]-1-piperazinyl}-6,7-dimethoxyquinazoline]",82
3,"COc1ccc(CNC(=C(C#N)C#N)N2CCN(c3ncnc4cc(OC)c(OC)cc34)CC2)cc1 [Compound 53, 4-{4-[2,2-Dicyano-1-(4-methoxybenzylamino)vinyl]-1-piperazinyl}-6,7-dimethoxyquinazoline]",87
4,"COc1cc2ncnc(N3CCN(C(SC)=C(C#N)C#N)CC3)c2cc1OC [Compound 64, 4-[4-(2,2-Dicyano-1-methylthiovinyl)-1-piperazinyl]-6,7-dimethoxyquinazoline]",82
5,"COc1cc2ncnc(N3CCN(C(=NC#N)Oc4ccccc4)CC3)c2cc1OC [Compound 67, N-Cyano-4-(6,7-dimethoxy-4-quinazolinyl)-1-piperazinecarboximidic acid phenyl ester]",95

# System: not given
# Test: not given
# Settings: not given
row,SMILES,melting point
1,Cn1ncc2c(N3CCN(C(=O)Nc4ccc(Oc5ccccc5)cc4)CC3)ncnc21,155 to 156 °C
2,Cn1ncc2c(N3CCN(C(=S)NCc4cccnc4)CC3)ncnc21,210 to 211 °C
3,Cn1ncc2c(N3CCN(C(=S)NCc4ccccc4)CC3)ncnc21,175 to 176 °C
4,Cl.Cl.S=C(NCc1cccnc1)N1CCN(c2ncnc3c2cnn3-c2ccccc2)CC1,160 to 163 °C
5,O=C(Nc1ccc([N+](=O)[O-])cc1)N1CCN(c2ncnc3nc[nH]c23)CC1,270 to 275 °C (dec.)
6,Cl.Cl.S=C(NCc1cccnc1)N1CCN(c2ncnc3nc[nH]c23)CC1,178 to 185 °C
7,Nc1nc(N2CCN(C(=O)Nc3ccc([N+](=O)[O-])cc3)CC2)c2[nH]cnc2n1,208 to 214 °C
8,Cl.Cl.Nc1nc(N2CCN(C(=S)NCc3cccnc3)CC2)c2[nH]cnc2n1,180 to 185 °C (dec.)
9,Cn1cnc2c(N3CCN(C(=O)Nc4ccc(Oc5ccccc5)cc4)CC3)ncnc21,168 to 169 °C
10,"O=C(Nc1ccc(Oc2ccccc2)cc1)N1CCN(c2ncnc3nc[nH]c23)CC1 [Compound 1, N-(4-Phenoxyphenyl)-4-(6-purinyl)-1-piperazinecarboxamide]",250 to 251 °C
11,"S=C(NCc1ccccc1)N1CCN(c2ncnc3nc[nH]c23)CC1 [Compound 3, N-Benzyl-4-(6-purinyl)-1-piperazinethiocarboxamide]",255 to 260 °C
12,"Nc1nc(N2CCN(C(=O)Nc3ccc(Oc4ccccc4)cc3)CC2)c2[nH]cnc2n1 [Compound 5, 4-(2-Amino-6-purinyl)-N-(4-phenoxyphenyl)-1-piperazinecarboxamide]",244 to 258 °C
13,"Nc1nc(N2CCN(C(=S)NCc3ccccc3)CC2)c2[nH]cnc2n1 [Compound 7, 4-(2-Amino-6-purinyl)-N-benzyl-1-piperazinethiocarboxamide]",242 to 245 °C
14,"Cc1nn(C)c2ncc(C(N)=O)c(N3CCN(C(=O)Nc4ccc(Oc5ccccc5)cc4)CC3)c12 [Compound 12, 4-(5-Carbamoyl-1,3-dimethyl-4-1H-pyrazolo[3,4-b]pyridyl)-N-(4-phenoxyphenyl)-1-piperazinecarboxamide]",248 to 250 °C
15,"O=C(Nc1ccc(Oc2ccccc2)cc1)N1CCN(c2ncnc3ncccc23)CC1 [Compound 20, N-(4-Phenoxyphenyl)-4-(4-pyrido[2,3-d]pyrimidinyl)-1-piperazinecarboxamide]",104 to 106 °C
16,"S=C(NCc1ccccc1)N1CCN(c2ncnc3ncccc23)CC1 [Compound 21, N-Benzyl-4-(4-pyrido[2,3-d]pyrimidinyl)-1-piperazinethiocarboxamide]",169 to 170 °C
